ChEMBL document CHEMBL1201862, “PubChem BioAssay data set” (2004)
Calls of active or inactive are those of the source.

How the values were obtained:
[1] = target: T1, Replicative DNA helicase DnaB (Mycobacterium tuberculosis, UniProt P9WMR3); assay: DnaB intein splicing inhibitors, dose response, biochemical, cell-free fluorescence (AID 449749); format: functional
T1 sequence (P9WMR3 whole entry): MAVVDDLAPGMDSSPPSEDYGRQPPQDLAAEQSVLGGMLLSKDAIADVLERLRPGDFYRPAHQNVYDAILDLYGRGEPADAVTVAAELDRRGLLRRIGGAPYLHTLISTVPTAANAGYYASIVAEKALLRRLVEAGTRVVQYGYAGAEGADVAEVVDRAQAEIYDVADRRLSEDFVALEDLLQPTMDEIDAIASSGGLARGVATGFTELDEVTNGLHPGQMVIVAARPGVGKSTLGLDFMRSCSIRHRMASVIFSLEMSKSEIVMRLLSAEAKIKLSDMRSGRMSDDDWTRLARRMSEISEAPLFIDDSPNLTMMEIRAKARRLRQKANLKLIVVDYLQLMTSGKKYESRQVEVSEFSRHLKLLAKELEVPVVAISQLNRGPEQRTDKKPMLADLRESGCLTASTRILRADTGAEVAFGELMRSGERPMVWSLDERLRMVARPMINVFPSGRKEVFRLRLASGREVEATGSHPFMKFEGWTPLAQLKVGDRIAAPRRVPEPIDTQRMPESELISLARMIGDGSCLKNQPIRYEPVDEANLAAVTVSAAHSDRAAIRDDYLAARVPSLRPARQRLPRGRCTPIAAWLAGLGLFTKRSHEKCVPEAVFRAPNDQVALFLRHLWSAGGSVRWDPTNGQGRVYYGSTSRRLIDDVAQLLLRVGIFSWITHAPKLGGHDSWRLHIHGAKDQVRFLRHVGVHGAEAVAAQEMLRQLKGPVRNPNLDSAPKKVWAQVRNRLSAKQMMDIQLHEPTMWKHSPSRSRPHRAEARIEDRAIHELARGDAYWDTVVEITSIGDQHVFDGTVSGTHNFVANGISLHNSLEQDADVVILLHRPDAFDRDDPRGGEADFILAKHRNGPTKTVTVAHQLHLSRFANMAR

Protein RecA = target: T2, Protein RecA (Mycobacterium tuberculosis, UniProt P9WHJ3); assay: Fluorescence Cell-Free Homogeneous Dose Retest to Identify Inhibitors of RecA-Intein Splicing Activity. [Related pubchem assays (depositor defined):AID2097, AID2223, AID489010, AID492950]; format: functional
T2 sequence (P9WHJ3 whole entry): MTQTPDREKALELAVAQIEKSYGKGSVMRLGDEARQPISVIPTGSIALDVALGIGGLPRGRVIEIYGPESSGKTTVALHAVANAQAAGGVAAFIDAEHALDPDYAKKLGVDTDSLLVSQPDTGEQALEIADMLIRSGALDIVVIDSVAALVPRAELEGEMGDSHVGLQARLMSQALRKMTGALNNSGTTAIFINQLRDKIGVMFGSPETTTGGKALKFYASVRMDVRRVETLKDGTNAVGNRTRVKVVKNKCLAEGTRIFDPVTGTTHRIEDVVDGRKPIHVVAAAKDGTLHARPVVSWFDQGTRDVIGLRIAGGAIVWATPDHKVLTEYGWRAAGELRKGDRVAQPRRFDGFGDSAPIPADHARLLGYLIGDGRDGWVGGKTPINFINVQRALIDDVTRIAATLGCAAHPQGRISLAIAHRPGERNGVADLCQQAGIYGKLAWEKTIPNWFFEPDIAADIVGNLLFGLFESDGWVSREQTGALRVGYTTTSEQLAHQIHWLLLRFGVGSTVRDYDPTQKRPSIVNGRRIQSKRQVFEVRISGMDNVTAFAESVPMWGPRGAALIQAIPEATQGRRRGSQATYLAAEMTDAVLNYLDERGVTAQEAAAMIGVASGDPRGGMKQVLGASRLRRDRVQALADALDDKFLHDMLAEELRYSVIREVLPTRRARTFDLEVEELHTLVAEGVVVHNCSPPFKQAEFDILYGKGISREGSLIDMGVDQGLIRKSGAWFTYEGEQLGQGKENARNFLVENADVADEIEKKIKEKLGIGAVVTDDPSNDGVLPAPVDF

Cytochrome P450 3A4 = Cytochrome P450 3A4 (Homo sapiens, UniProt P08684);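 also: CYP3A4 tested as one member of a cytochrome P450 panel screen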
Sequence of Cytochrome P450 3A4 (P08684 whole entry): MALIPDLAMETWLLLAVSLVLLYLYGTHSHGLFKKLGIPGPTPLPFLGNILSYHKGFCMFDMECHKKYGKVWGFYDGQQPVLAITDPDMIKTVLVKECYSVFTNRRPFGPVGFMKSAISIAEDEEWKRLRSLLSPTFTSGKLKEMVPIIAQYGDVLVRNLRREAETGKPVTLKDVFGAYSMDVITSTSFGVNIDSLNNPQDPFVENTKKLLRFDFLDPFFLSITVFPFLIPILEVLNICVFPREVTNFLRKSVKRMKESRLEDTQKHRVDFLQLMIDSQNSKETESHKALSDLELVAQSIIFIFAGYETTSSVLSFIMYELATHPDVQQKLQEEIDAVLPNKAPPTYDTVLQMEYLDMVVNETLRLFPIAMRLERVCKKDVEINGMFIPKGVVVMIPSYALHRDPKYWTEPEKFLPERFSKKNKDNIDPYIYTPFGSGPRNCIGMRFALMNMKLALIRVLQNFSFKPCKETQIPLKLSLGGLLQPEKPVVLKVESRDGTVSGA

INS1 = assay: beta cell apoptosis inhibitors, cytokine rescue, dose response, luminescence, retest (AID 449756); format: functional, cell-based; settings: Rattus norvegicus;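 also: cell death triggered by IL-1 beta plus TNF-alpha plus IFN-gamma mixture; protective hits raise ATP signal compared with cytokine alone wells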
Cytochrome P450 2C19 = Cytochrome P450 2C19 (Homo sapiens, UniProt P33261); assay: Cytochrome panel assay with activity outcomes. Panel member name: p450-cyp2c19 Compounds with AC50 equal or less than 10 uM are considered active; format: functional; settings: read-out: AC50
Sequence of Cytochrome P450 2C19 (P33261 whole entry): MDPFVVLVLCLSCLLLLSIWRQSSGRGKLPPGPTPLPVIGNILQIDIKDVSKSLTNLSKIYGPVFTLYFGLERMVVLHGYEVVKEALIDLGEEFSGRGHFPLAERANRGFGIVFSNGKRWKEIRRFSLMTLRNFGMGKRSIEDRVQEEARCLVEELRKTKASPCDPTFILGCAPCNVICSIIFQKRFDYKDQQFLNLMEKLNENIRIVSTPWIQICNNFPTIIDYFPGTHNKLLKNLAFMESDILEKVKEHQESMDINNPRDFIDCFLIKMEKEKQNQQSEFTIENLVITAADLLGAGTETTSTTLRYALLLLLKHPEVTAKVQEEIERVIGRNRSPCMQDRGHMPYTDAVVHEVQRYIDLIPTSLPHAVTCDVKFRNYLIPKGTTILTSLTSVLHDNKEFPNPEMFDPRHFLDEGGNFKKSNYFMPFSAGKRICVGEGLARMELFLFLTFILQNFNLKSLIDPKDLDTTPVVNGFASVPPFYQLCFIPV

[2] = NIH-3T3 fibroblast cytotoxicity, dose response, cytotoxicity control, cell-based, fluorescence, Alamar Blue, secondary assay (AID 2327); format: functional;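 also: NIH-3T3 mouse fibroblasts cultured with fluconazole at 8 µg/mL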
[3] = C. albicans growth with fluconazole, confirmation, fluorescence, retest (AID 2467); format: functional, cell-based

| SMILES | AC50 [1] | EC50 (Protein RecA) | AC50 (Cytochrome P450 3A4) | further results |
| --- | --- | --- | --- | --- |
| COc1ccc(Nc2oc(COc3ccccc3F)nc2C#N)cc1 | 19.9 µM (active) | 2.44 µM (active) |  |  |
| N#Cc1cccc(-c2nc(NCc3ccccc3)c3ccccc3n2)c1 |  |  | 20 µM (inconclusive) |  |
| CC(C)(C)c1ccc(NNC(=O)C2CCC2)cc1 |  |  |  | AC50 (INS1): 7.4 µM (active) |
| CC(C)(C)c1cc(C(=O)CCN2CCOCC2)cc(C(C)(C)C)c1O | 129 µM (active) | 16.8 µM (active) |  |  |
| COc1ccc(COC(=O)N/N=C2/C[C@@H](O)[C@@H](O)[C@@H]3[C@@H]4C(=O)N([C@@H](C)c5ccccc5)C(=O)[C@H]4CC[C@@H]23)cc1 |  |  | 3.98 µM (inconclusive) |  |
| Cc1c(C(=O)NN)nn(-c2ccc(Cl)cc2)c(=O)c1C#N | 79.8 µM (active) | 8.06 µM (active) |  |  |
| Cc1cc(C)n(-c2ccc(C(=O)Nc3cc(C(F)(F)F)ccc3N3CCOCC3)cc2)n1 |  |  | 14.1 µM (inconclusive) | AC50 (Cytochrome P450 2C19): 10 µM (inconclusive) |
| CCOC(=O)CNC(c1ccccc1)c1cc(Br)ccc1NC(=O)CCN1CCOCC1 (stereo not given) |  |  |  | EC50 [2]: 39.4 µM (active); EC50 [3]: 3.44 µM (active) |
| O=C(Oc1cccc2cccnc12)c1cccc(N2C(=O)C3C4CCC(C4)C3C2=O)c1 (stereo not given) |  |  |  | AC50 (INS1): 16.2 µM (active) |
| COc1ccc(/C=C2\N=C(SC)N(C)C2=O)cc1 |  |  | 28.2 µM (inconclusive) |  |
| Cc1ccc(OCc2cc(C(=O)N(C)Cc3cc(C4CC4)[nH]n3)no2)cc1C |  |  |  | AC50 (INS1): > 260 µM (inactive) |
| Cc1ccc(NC(=O)NCCCc2ccccc2)cc1 |  |  | 7.94 µM (inconclusive) |  |
| NC(=O)CC12CC3CC(C1)CC(CC(N)=O)(C3)C2 |  |  |  | EC50 [2]: > 160 µM (inactive); EC50 [3]: > 38 µM (not active) |
| O=C(c1cc(Cl)c(=O)n(Cc2ccc(Cl)cc2)c1)N1CCOCC1 |  |  | 28.2 µM (inconclusive) |  |
| Cc1ccc(O)c(-c2cc3ccccc3[nH]2)c1 |  |  |  | EC50 [2]: > 160 µM (inactive); EC50 [3]: > 38 µM (not active) |
| CC(=O)NC(c1ccco1)c1cc(F)c2cccnc2c1O (stereo not given) |  |  |  | AC50 (INS1): 2.71 µM (active) |
| COc1cc(C(c2c(C)n[nH]c2O)c2c(C)n[nH]c2O)ccc1OC(C)C | 0.318 µM (active) | 0.223 µM (active) |  |  |
| CS/C(=C\[N+](=O)[O-])Nc1ccc(Cl)cc1 | 23.2 µM (active) | 12.7 µM (active) |  | EC50 [2]: > 150 µM (inconclusive); EC50 [3]: > 38 µM (not active) |
| COc1ccc(N2C(=O)C(Cl)=C(N3CCN(Cc4ccccc4)CC3)C2=O)cc1 | 8.12 µM (active) | 1.67 µM (active) |  |  |
| COCC(=O)N1CCC[C@@]2(CCN(Cc3nccs3)C2)C1 |  |  | 20 µM (inconclusive) |  |
| O=c1oc(-c2ccccc2Cl)nc2ccsc12 | 14 µM (active) | 23.3 µM (active) |  |  |
| Cc1n[nH]c(O)c1C(c1ccc(Br)cc1)c1c(C)n[nH]c1O | 0.588 µM (active) | 0.338 µM (active) |  |  |
| CCCCCCC1CC(C)(/C(C)=N/NC(N)=O)OC1=O (stereo not given) |  |  | 17.8 µM (inconclusive) |  |
| C/C(CC(=O)Nc1ccc(F)cc1)=N\NC(=O)COc1ccccc1 | 10.3 µM (active) | 3.72 µM (active) |  |  |
| COc1cc(/C=N/NC(=O)c2cccs2)ccc1OCc1ccccc1 |  |  | 15.8 µM (inconclusive) |  |
